The structures appear in SMILES notation.

Holding throughout (type): biochemical
The target in experiment [1] is T1, human type 1 5α-reductase (Homo sapiens, UniProt P18405).
T1 construct: made in house; host or cells: Sf9 insect cells, recombinant baculovirus; microsomes
T1 sequence (P18405 1-259): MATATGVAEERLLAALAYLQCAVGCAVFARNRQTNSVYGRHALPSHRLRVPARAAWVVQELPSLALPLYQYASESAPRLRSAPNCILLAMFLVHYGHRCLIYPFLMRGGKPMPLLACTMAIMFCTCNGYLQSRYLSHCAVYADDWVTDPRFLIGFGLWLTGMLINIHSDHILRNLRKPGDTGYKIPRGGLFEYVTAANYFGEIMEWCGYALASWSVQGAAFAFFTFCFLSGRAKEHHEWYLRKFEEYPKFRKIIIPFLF
Put plainly: Inhibition of human type 1 steroid 5α-reductase (microsomes; testosterone to DHT conversion). To be noted: 10 min preincubation, pH 7.0, 100 nM testosterone, 10-120 min, 1 mM NADPH; read-out: IC50 Human Type 1 5AR. As to the method:
(§1) Enzyme activities may be determined using microsomes derived from: 1) prostate tissue from benign prostatic hyperplasia (BPH) patients; 2) recombinant baculovirus infected SF9 cells that express human type 1 5α-reductase; or 3) recombinant baculovirus infected SF9 cells that express human type 2 5α-reductase. Microsomes were prepared by homogenization of the tissue or cells, followed by differential centrifugation of the homogenate. Microsome extracts were incubated with varying concentrations of [1,2,6,7-^3 H]-testosterone, 1 mM NADPH, and varying amounts of the compounds of formula (I,) i.e. a test compound, in buffer containing a NADPH regenerating system capable of maintaining NADPH concentrations for a period of time within the range 0.5-240 minutes. Corresponding incubations were carried out with no test compound as a control study.
(§2) For type 1 IC50 measurements, assay components except testosterone were preincubated for 10 minutes at pH 7.0, and following the addition of 100 nM testosterone the assays were allowed to proceed for 10-120 minutes. For type 2 IC50 measurements, assay components except testosterone were preincubated for 20 minutes at pH 6.0, and following the addition of 8 nM testosterone the assays were allowed to proceed for 20-40 minutes. The percentage of conversion of testosterone to DHT in the presence of test compounds compared to the corresponding conversion in the control study was estimated using high performance liquid chromatography (HPLC) with radiochemical detection.

For experiment [2], the target named is T2, human type 2 5α-reductase (Homo sapiens, UniProt P31213).
T2 construct: made in house; host or cells: Sf9 insect cells, recombinant baculovirus; microsomes
T2 sequence (P31213 1-254): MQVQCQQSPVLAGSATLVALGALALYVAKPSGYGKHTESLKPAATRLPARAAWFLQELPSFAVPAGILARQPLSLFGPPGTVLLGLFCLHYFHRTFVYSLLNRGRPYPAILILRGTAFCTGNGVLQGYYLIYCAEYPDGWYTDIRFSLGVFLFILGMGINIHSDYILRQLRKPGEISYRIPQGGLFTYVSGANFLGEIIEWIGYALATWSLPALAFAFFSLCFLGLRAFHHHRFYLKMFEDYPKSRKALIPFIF
Put plainly: Inhibition of human type 2 steroid 5α-reductase (microsomes; testosterone to DHT conversion). Conditions: 20 min preincubation, pH 6.0, 8 nM testosterone, 20-40 min, 1 mM NADPH; read-out: IC50 Human Type 2 5AR. As to the method: as §1, §2

The target of experiment [3] is T3, Human Adrenal 3BHSD (Homo sapiens, UniProt P26439).
T3 construct: microsomes derived from human adrenal tissues; from tissue; host or cells: human adrenal tissue, microsomes
T3 sequence (P26439 1-372): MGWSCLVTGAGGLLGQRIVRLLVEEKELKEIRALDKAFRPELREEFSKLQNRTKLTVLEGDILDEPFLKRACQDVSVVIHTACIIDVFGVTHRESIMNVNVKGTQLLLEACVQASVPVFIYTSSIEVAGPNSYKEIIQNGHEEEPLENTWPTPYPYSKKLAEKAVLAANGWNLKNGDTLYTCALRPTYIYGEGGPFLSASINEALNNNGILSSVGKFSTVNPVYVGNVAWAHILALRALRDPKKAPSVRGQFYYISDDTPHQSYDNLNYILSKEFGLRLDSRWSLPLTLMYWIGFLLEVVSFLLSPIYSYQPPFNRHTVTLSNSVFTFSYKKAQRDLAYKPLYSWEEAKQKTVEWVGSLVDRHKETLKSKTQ
Put plainly: Inhibition of human adrenal 3β-hydroxy-Δ^5-steroid dehydrogenase/3-keto-Δ^5-steroid isomerase (3BHSD) (microsomes; DHEA to androstenedione conversion). To be noted: 1 mM NAD+, pH 7.5, 1 to 60 minutes. As for the experimental part: Enzyme activities are measured using microsomes derived from human adrenal tissues. Microsomes were prepared by homogenization of the tissue followed by differential centrifugation of the homogenate. Microsome extracts were incubated with varying concentrations of dehydroepiandrosterone (DHEA), 1 mM NAD+, and varying amounts of the compounds of Formula (I), i.e. a test compound, in pH 7.5 buffer for a period of time within the range of 1 to 60 minutes. Corresponding incubations were carried out with no test compound as a control study. The percentage of conversion of DHEA to androstenedione in the presence of test compounds compared to the corresponding conversion in the control study was estimated using HPLC with radiochemical detection.

In the case of `C[C@]12C=CC(=O)N[C@@H]1CC[C@@H]1[C@@H]2CC[C@]2(C)[C@@H](C(=O)NC3(c4cccc(C(F)(F)F)c4)CCCC3)CC[C@@H]12` [Compound 19, 17β-N-1-(3-Trifluoromethylphenyl)cyclopentylcarbamoyl-4-aza-5α-androst-1-en-3-one], the IC50 – broadly, the concentration at which inhibition is half-maximal – in experiment [1] was 1 to 10 nM; in experiment [2] it was less than 1 nM. Further, the Ki (in general, a measure of affinity in units of concentration, obtained from inhibition or displacement) in experiment [3] was more than 1000 nM.

For the compound `CC(C)(C)c1ccc(C2(NC(=O)[C@H]3CC[C@H]4[C@@H]5CC[C@H]6NC(=O)C=C[C@]6(C)[C@H]5CC[C@]34C)CCSCC2)cc1` [Compound 20, 17β-N-4-(4-t-Butylphenyl)tetrahydrothiopyranylcarbamoyl-4-aza-5α-androst-1-en-3-one], the IC50 in experiment [1] and in experiment [2] was less than 1 nM throughout. The compound also returned a Ki in experiment [3] of more than 1000 nM.

In the case of `CCC1(CC)CC1(NC(=O)[C@H]1CC[C@H]2[C@@H]3CC[C@H]4NC(=O)C=C[C@]4(C)[C@H]3CC[C@]12C)c1ccc(-c2ccccc2)cc1` (stereo partly drawn) [Compound 21, 17β-N-1-(4-Biphenyl)-2,2-diethylcyclopropylcarbamoyl-4-aza-5α-androst-1-en-3-one], the half-maximal inhibitory concentration (IC50) in experiment [1] and in experiment [2] was less than 1 nM throughout. In experiment [3], this compound gave a Ki of more than 1000 nM.

As to `C[C@]12CCC(=O)N[C@@H]1CC[C@@H]1[C@@H]2CC[C@]2(C)[C@@H](C(=O)Nc3cc(C(F)(F)F)ccc3C(F)(F)F)CC[C@@H]12` [Compound 22, 17β-N-(2,5-bis(Trifluoromethyl))phenylcarbamoyl-4-aza-5α-androstan-3-one], the half-inhibitory concentration (IC50) is 1 to 10 nM in experiment [1] and less than 1 nM in experiment [2]. The same compound had a Ki in experiment [3] of more than 1000 nM.

Regarding `CN1C(=O)CC[C@]2(C)[C@H]3CC[C@]4(C)[C@@H](C(=O)Nc5cc(C(F)(F)F)ccc5C(F)(F)F)CC[C@H]4[C@@H]3CC[C@@H]12` [Compound 23, 17β-N-(2,5-bis(Trifluoromethyl))phenylcarbamoyl-4-methyl-4-aza-5α-androstan-3-one], the IC50 in experiment [1] and in experiment [2] was less than 1 nM in each case. The compound also had a Ki in experiment [3] of 10 to 10000 nM.

On to `CC(C)(C)c1ccc(C(F)(F)F)cc1NC(=O)[C@H]1CC[C@H]2[C@@H]3CC[C@H]4NC(=O)C=C[C@]4(C)[C@H]3CC[C@]12C` [Compound 24, 17β-N-(2-t-Butyl-5-trifluoromethyl)phenylcarbamoyl-4-aza-5α-androst-1-en-3-one], for which the values for the half-inhibitory concentration (IC50) in experiment [1] and in experiment [2] were 1 to 10 nM and less than 1 nM, respectively. This compound also yielded a Ki in experiment [3] of more than 1000 nM.

On to `CC(C)(C)c1ccc(C(F)(F)F)cc1NC(=O)[C@H]1CC[C@H]2[C@@H]3CC[C@H]4NC(=O)CC[C@]4(C)[C@H]3CC[C@]12C` [Compound 25, 17β-N-(2-t-Butyl-5-trifluoromethyl)phenylcarbamoyl-4-aza-5α-androstan-3-one], for which the IC50 was 1 to 10 nM in experiment [1] and less than 1 nM in experiment [2]. The Ki in experiment [3] was more than 1000 nM.

As to `CN1C(=O)CC[C@]2(C)[C@H]3CC[C@]4(C)[C@@H](C(=O)Nc5cc(C(F)(F)F)ccc5C(C)(C)C)CC[C@H]4[C@@H]3CC[C@@H]12` [Compound 26, 17β-N-(2-t-Butyl-5-trifluoromethyl)phenylcarbamoyl-4-methyl-4-aza-5α-androstan-3-one], the IC50 in experiment [1] and in experiment [2] was less than 1 nM in each case. In experiment [3], the inhibition constant (Ki) was in the range of 10 to 10000 nM.

`CC(C)(C)c1ccc(C(C)(C)C)c(NC(=O)[C@H]2CC[C@H]3[C@@H]4CC[C@H]5NC(=O)C=C[C@]5(C)[C@H]4CC[C@]23C)c1` [Compound 27, 17β-N-(2,5-Di-t-butyl)phenylcarbamoyl-4-aza-5α-androst-1-en-3-one]: the IC50 is 1 to 10 nM in experiment [1] and less than 1 nM in experiment [2]. The compound also gave an inhibitory constant (Ki) in experiment [3] of 10 to 10000 nM.

With `CC(C)(C)c1ccc(C(C)(C)C)c(NC(=O)[C@H]2CC[C@H]3[C@@H]4CC[C@H]5NC(=O)CC[C@]5(C)[C@H]4CC[C@]23C)c1` [Compound 28, 17β-N-(2,5-Di-t-butyl)phenylcarbamoyl-4-aza-5α-androstan-3-one], the figures for the IC50 in experiment [1] and in experiment [2] were 1 to 10 nM and less than 1 nM, respectively. For the same compound, the inhibitory constant (Ki) in experiment [3] is more than 1000 nM.

The values are drawn from patent US5817818A, “Androstenones” (Glaxo Wellcome Inc., priority 1996, dated 1998).
